What was measured:
[1] = Plasma pharmacokinetics following single intravenous and subcutaneous injections of salmeterol xinafoate; conditions: for AUC(0-inf): AUCinf; for half-life: t1/2
Procedure: Salmeterol xinafoate was formulated in 5% PEG-400 in 0.9% saline, USP, at concentrations of 0.1, 1, 10, and 100 μg/mL. 1 male and 1 female non-naive Gottingen minipigs (18.4 to 19.5 kg at the time of the IV dose) were utilized. The animals were housed individually.
Each minipig received a single IV injection followed by SC doses of the salmeterol formulation. The IV dose was administered by slow bolus (1 minute; 0.0167 hr) into the marginal ear vein, whereas the first SC dose was administered as a bolus injection along the back (neck-region) where there was a longitudinal fat depot. The second SC dose was distributed in 5 separate SC injection sites. The fourth, fifth, and sixth administrations were SC administrations divided over 5 injection sits of different graded concentrations (0.1, 1, and 10 μg/mL of salmeterol in 5% PEG). Each dose was separated by at least a 3-day washout period. Blood samples (approximately 4 mL) were collected via the branchiocephalic plexus at pre-dose and at 2.00, 5.00, 10.0, 20.0, 30.0 and 45.0 minutes, and at 1.00, 2.00, 4.00, 8.00 and 24.0 hr post-dose. Blood samples were placed in tubes containing K2-EDTA as the anticoagulant. Samples were processed to plasma by centrifugation and stored frozen at approximately −70° C. (+/−15° C.) until shipment for analysis.
Plasma samples were analyzed for salmeterol using a qualified liquid chromatography/mass spectrometry/mass mass spectrometry (LC/MS/MS) method. The lower limit of quantitation (LLOQ) was 2.50 pg/mL. Samples were analyzed within a maximum of 14.0 days of collection.
Non-compartmental pharmacokinetic parameters were calculated using WinNonlin 5.2 software, NCA model 202, IV infusion input for the IV data and NCA model 200, extravascular input for the SC data. Individual plasma concentrations for each animal were used in the calculation of pharmacokinetic parameters. Nominal collection times and doses were used in the calculations. The area under the plasma concentration-time curve (AUC) was calculated using linear trapezoidal approximation (linear/log interpolation). Concentration values below the assay limit of quantitation were set to zero for calculations. The maximum plasma concentration (Cmax) and the time of its occurrence (Tmax) were verified by inspection. The half-life (t1/2) values were calculated using the last 3 plasma concentrations with nonzero values, if data permitted.

[2] = versus albuterol, a short-acting hydrophilic beta-adrenergic agonist; cited from earlier work
[3] = test system: abdominal subcutaneous adipose tissue
From the text: To evaluate in a single masked, placebo-controlled design, the safety and exploratory efficacy measures of subcutaneous injections of three different doses of the combination of salmeterol xinafoate (SX) and fluticasone propionate (FP) administered by subcutaneous injection 1 or 2 times per week for 4 weeks to subjects with measurable abdominal subcutaneous adipose tissue.
A single-masked, placebo-controlled multiple-dose study of the safety and efficacy of three different doses of the combination of salmeterol xinafoate (SX) and fluticasone propionate (FP) administered by subcutaneous injection 1 or 2 times per week for 4 weeks in 60 subjects with measurable abdominal subcutaneous adipose tissue.
A 400 μg/mL sterile, preservative-free, clear, aqueous solution for injection of SX is contained in a 5 mL single-use glass vial. Each 5 mL single-use glass vial contains 2.6 mL of SX solution (400 μg/mL) which is stored frozen (−15° C. or below) and protected from light until dose preparation. A 25 mg/mL sterile, preservative free, clear, aqueous solution for injection of FP is contained in a 2 mL single-use glass vial. […]
Measurements of waist were taken at specified time points. […] The full waist circumference, and the right and the left hemi-circumferences were recorded.

[4] = Phase 1 open-label pharmacokinetics and safety of SX and FP co-administered subcutaneously in healthy volunteers; conditions: 52 μg salmeterol xinafoate with 22 μg fluticasone propionate SC once per week for 4 weeks
Procedure: Part III: An open-label, multiple-dose pharmacokinetic study of the selected SX+FP combined dose administered subcutaneously either 1 time per week for 4 weeks or 3 times per week for 4 weeks in twelve (12) healthy volunteers.
A 400 μg/mL sterile, preservative-free, clear, aqueous solution for injection of SX is contained in a 5 mL single-use glass vial. Each 5 mL single-use glass vial contains 2.6 mL of SX solution (400 μg/mL) which is stored frozen (−15° C. to −25° C.) and protected from light until dose preparation. A 25 mg/mL sterile, preservative free, clear, aqueous solution for injection of FP is contained in a 2 mL single-use glass vial. Each 2 mL single-use glass vial contains 1.0 mL of FP solution (25 μg/mL) which is stored frozen (−15° C. to −25° C.) and protected from light until dose preparation. Diluent: A sterile, preservative free, clear, aqueous solution of 20% PEG 400, 1% polysorbate 80, and sterile water for injection contained in a 10 mL single-use glass vial. Each 10 mL single-use glass vial contains 5.0 mL of diluent solution which should be stored at room temperature (15° C. to 25° C.). Prior to administration, the drug products are thawed, mixed, and if necessary diluted with sterile diluent to provide the target concentrations for dose administration. […]

[5] = test system: abdominal subcutaneous adipose tissue; assay: Phase 2 double-masked evaluation of safety and efficacy of SX and FP subcutaneous injection; conditions: total weekly SX/FP dose of 11 μg/22 μg
From the text: A Phase 2 study to examine the potential of selected doses of salmeterol xinafoate (SX) and fluticasone propionate (FP) co-administered to reduce abdominal subcutaneous adipose tissue, which is an interim surrogate to guide studies in subjects with symptomatic exophthalmos associated with thyroid-related eye disease (TED). The study also evaluated the safety and efficacy of subcutaneous injections of salmeterol xinafoate (SX) and fluticasone propionate (FP) for the reduction of abdominal (peri- and infra-umbilical) adiposity. The study compared the efficacy and safety of salmeterol xinafoate (SX) and fluticasone propionate (FP) at 1.0 μg FP and 0.05 μg SX once weekly to 1 mL placebo once weekly for 8 weeks for the reduction of measurable, abdominal subcutaneous adipose tissue. Additionally, the study evaluated in a double-masked, placebo-controlled design, the pharmacokinetics following multiple injected doses of salmeterol xinafoate (SX) and fluticasone propionate (FP) once weekly for 8 weeks. […]
All injections were performed in an outpatient setting. […] Once the study was completed and unmasked, only the serum samples collected from subjects receiving the higher combination dose were analyzed.

[6] = female, Gottingen, minipig, in vivo, iv, 4 ug/kg
[7] = female, Gottingen, minipig, in vivo, sc, 0.4 ug/kg
[8] = female, Gottingen, minipig, in vivo, sc, 4 ug/kg
[9] = male, Gottingen, minipig, in vivo, iv, 4 ug/kg
[10] = male, Gottingen, minipig, in vivo, sc, 0.4 ug/kg
[11] = male, Gottingen, minipig, in vivo, sc, 4 ug/kg

Compound: OCc1cc(C(O)CNCCCCCCOCCCCc2ccccc2)ccc1O (racemic) [Salmeterol, ±2-(hydroxymethyl)-4-[1-hydroxy-2-[6-(4-phenylbutoxy)hexylamino]ethyl]-phenol]
- Tmax ([1]; SC5 (5 sites) 4 μg/kg, male 1-0771): 0.0833 h
- salmeterol partition ratio (plasma Cmax ratio of subcutaneous to intravenous administration) ([1]; both, Gottingen, minipig, in vivo): 0.1
- concentration at 0.0833 hr ([1]; female, Gottingen, minipig, in vivo): 0.485 ng/mL
- bioavailability ([1]; female, Gottingen, minipig, in vivo, 0.4 ug/kg, F (bioavailability)): 112%
- concentration at 0.0833 hr ([1]; female, Gottingen, minipig, in vivo, 0.04 mg/kg): 0.00317 ng/mL
- concentration at 0.0833 hr ([1]; female, Gottingen, minipig, in vivo, iv): 1.3 ng/mL
- Vd [1, 6]: 22.1 L/kg
- clearance [1, 6]: 45.5 mL/min/kg
- AUC(0-inf) [1, 6]: 1.47 ng·h/mL
- Cmax ([1]; female, Gottingen, minipig, in vivo, iv, 4 ug/kg, Cmax): 4.95 ng/mL
- Tmax ([1]; female, Gottingen, minipig, in vivo, iv, 4 ug/kg, Tmax): 0.0333 h
- half-life [1, 6]: 9.52 h
- concentration at 0.0833 hr ([1]; female, Gottingen, minipig, in vivo, sc): 0.227 ng/mL
- Cmax ([1]; female, Gottingen, minipig, in vivo, sc, 0.004 ug/kg, Cmax): 0.00308 ng/mL
- Tmax ([1]; female, Gottingen, minipig, in vivo, sc, 0.004 ug/kg, Tmax): 1 h
- Cmax ([1]; female, Gottingen, minipig, in vivo, sc, 0.04 ug/kg, Cmax): 0.00831 ng/mL
- Tmax ([1]; female, Gottingen, minipig, in vivo, sc, 0.04 ug/kg, Tmax): 0.0333 h
- F (bioavailability) [1, 7]: 1.12
- AUC(0-inf) [1, 7]: 0.164 ng·h/mL
- Cmax ([1]; female, Gottingen, minipig, in vivo, sc, 0.4 ug/kg, Cmax): 0.113 ng/mL
- Tmax ([1]; female, Gottingen, minipig, in vivo, sc, 0.4 ug/kg, Tmax): 0.0333 h
- half-life [1, 7]: 2.88 h
- AUCinf [1, 8]: 2.01 ng·h/mL
- Cmax [1, 8]: 0.626 ng/mL
- F (bioavailability) [1, 8]: 1.37
- t1/2 [1, 8]: 8.58 h
- AUC(0-inf) [1, 8]: 1.85 ng·h/mL
- Cmax ([1]; female, Gottingen, minipig, in vivo, sc, 4 ug/kg, Cmax): 0.403 ng/mL
- bioavailability ([1]; female, Gottingen, minipig, in vivo, sc, 4 ug/kg, F (bioavailability)): 126%
- bioavailability ([1]; female, Gottingen, minipig, in vivo, sc, 4 ug/kg, bioavailability): 126 to 137%
- half-life [1, 8]: 6.02 h
- concentration at 0.0833 hr ([1]; male, Gottingen, minipig, in vivo): 0.681 ng/mL
- bioavailability ([1]; male, Gottingen, minipig, in vivo, 0.4 ug/kg, F (bioavailability)): 78.9%
- concentration at 0.0833 hr ([1]; male, Gottingen, minipig, in vivo, 0.04 mg/kg): 0.00277 ng/mL
- concentration at 0.0833 hr ([1]; male, Gottingen, minipig, in vivo, iv): 1.38 ng/mL
- Vd [1, 9]: 17.1 L/kg
- clearance [1, 9]: 38 mL/min/kg
- AUC(0-inf) [1, 9]: 1.75 ng·h/mL
- Cmax ([1]; male, Gottingen, minipig, in vivo, iv, 4 ug/kg, Cmax): 4.29 ng/mL
- Tmax ([1]; male, Gottingen, minipig, in vivo, iv, 4 ug/kg, Tmax): 0.0333 h
- half-life [1, 9]: 7.89 h
- concentration at 0.0833 hr ([1]; male, Gottingen, minipig, in vivo, sc): 0.575 ng/mL
- Tmax ([1]; male, Gottingen, minipig, in vivo, sc, 0.04 ug/kg): 0.0833 h
- Cmax ([1]; male, Gottingen, minipig, in vivo, sc, 0.04 ug/kg, Cmax): 0.00277 ng/mL
- F (bioavailability) [1, 10]: 0.789
- Tmax [1, 10]: 0.0833 h
- AUC(0-inf) [1, 10]: 0.138 ng·h/mL
- Cmax ([1]; male, Gottingen, minipig, in vivo, sc, 0.4 ug/kg, Cmax): 0.0645 ng/mL
- half-life [1, 10]: 2.94 h
- AUCinf [1, 11]: 1.51 ng·h/mL
- Cmax [1, 11]: 0.681 ng/mL
- F (bioavailability) [1, 11]: 0.863
- Tmax [1, 11]: 0.0833 h
- t1/2 [1, 11]: 6.84 h
- AUC(0-inf) [1, 11]: 1.29 ng·h/mL
- Cmax ([1]; male, Gottingen, minipig, in vivo, sc, 4 ug/kg, Cmax): 0.575 ng/mL
- bioavailability ([1]; male, Gottingen, minipig, in vivo, sc, 4 ug/kg, F (bioavailability)): 73.7%
- bioavailability ([1]; male, Gottingen, minipig, in vivo, sc, 4 ug/kg, bioavailability): 73.7 to 86.3%
- half-life [1, 11]: 5.92 h
- partition ratio relative to the partition ratio of formoterol ([1]; minipig, in vivo): about five times lower
- Cmax ([1]; minipig, in vivo, 0.004 ug/kg): 0 ng/mL
- lipophilicity relative to albuterol [2]: at least 10,000 times

Compound: OCc1cc(C(O)CNCCCCCCOCCCCc2ccccc2)ccc1O (stereo not drawn) [salmeterol xinafoate]
- efficacy of once per week versus twice per week dosing ([3]; human clinical trial, FIGS. 3B and 7B): more efficacious than twice per week dosing
- dose-therapeutic efficacy response (change in waist circumference) ([3]; lowest dose 0.5 μg salmeterol xinafoate once per week for 4 weeks, with fluticasone, versus higher weekly doses): greatest therapeutic efficacy

Compound: fluticasone propionate
- Cmax and AUC at day 22 compared to day 1 [4]: increase
- plasma levels relative to 505(b)(2) reference levels produced by an FDA-approved drug [5]: ⅓-⅕
